For 52 molecules, IC50 results are on record in ChEMBL document CHEMBL3301448, “MMV Malaria Box screening against Toxoplasma gondii and Entamoeba histolytica”.

The test system of one assay is Toxoplasma gondii. The assay can be described thus: MMV: A total of 100ul of inoculum was added to each well (parasite/cell ratio, ~10:1; final volume, 200 ul). Six hours after inoculation, nonadherent parasites were removed, and 100 ul of complete DMEM (1% penicillin-streptomycin, 3% FBS) supplemented with inhibitors at different concentrations (2-fold serial dilutions starting from 30 uM) was added to all except the negative-control wells. Positive controls, consisting of pyrimethamine (PYR) and sulfadiazine (SDZ) (20-mg/ml stocks in DMSO), were tested at a 2mg/ml final concentration. Each test was performed in triplicate. The class given is functional, organism-based. The conditions noted are these: 6 h.

The test system of another assay is Entamoeba histolytica. The experiment in a line: MMV: Primary screening was performed with each compound at a 30 uM final concentration and in triplicate in sealed 96-well polystyrene microtiter plates. Parasite inocula (100 ul) comprising 20000 parasites/ml were added to each well and grown at 37 degrees C in a humidified atmosphere of 5% CO2 for 72 h. Positive controls consisted of metronidazole at 1 mg/ml. The growth of E. histolytica trophozoites in each well was determined microscopically by measuring the diameters of the confluent cells in drug-containing wells relative to those in the nega- tive-control wells. The class given is functional, organism-based.

pIC50: −log10 of the molar value.

Usually pIC50 stands for −log10 of the IC50, conventionally taken in molar units. With `COC(=O)c1ccc(C2C3=C(O)CC(c4ccc(F)cc4)CC3=Nc3ccccc3N2C(=O)c2ccccc2)cc1` (centres undefined), the pIC50 in the assay with Toxoplasma gondii and in the assay on Entamoeba histolytica was less than 4.52 in each case.
With `CCOc1ccc(-c2nonc2NC(=O)c2cccc(C)c2)cc1OCC`, the negative-log IC50 (pIC50) in the assay with Toxoplasma gondii and in the assay with Entamoeba histolytica was less than 4.52 throughout.
`CCCc1c(CC)c(=N)c2ccccc2n1C`: the pIC50 in the assay on Toxoplasma gondii and in the assay with Entamoeba histolytica was less than 4.52 in each case.
For `CCCCc1c(C)nc2c(OC)cccc2c1O`, the pIC50 in the assay with Toxoplasma gondii and in the assay on Entamoeba histolytica was less than 4.52 each time.
With `CCOC(=O)c1c(NC(=O)c2ccccc2)sc2c(O)c(CN(CC)CC)ccc12`, the pIC50 with Toxoplasma gondii and in the assay with Entamoeba histolytica was less than 4.52 in each case.
Take `O=C(Nc1cccc(C(F)(F)F)c1)c1cc(Cl)ccc1O`: the negative-log IC50 (pIC50) in the assay on Toxoplasma gondii and in the assay on Entamoeba histolytica was less than 4.52 in each case.
As to `COc1ccc(C(=O)Nc2ccc3nc(N4CCCCC4)cc(C)c3c2)cc1OC`, the pIC50 with Toxoplasma gondii was 4.59; in the assay with Entamoeba histolytica, less than 4.52.
`COc1ccc(C)c2sc(N(Cc3cccnc3)C(=O)c3ccc(C#N)cc3)nc12`: the negative-log IC50 (pIC50) in the assay on Toxoplasma gondii and in the assay on Entamoeba histolytica was less than 4.52 throughout.
Consider `CCOc1ccc2nc(C)cc(Nc3ccc(N(C)C)cc3)c2c1`, for which the pIC50 in the assay on Toxoplasma gondii and in the assay with Entamoeba histolytica was less than 4.52 each time.
With `Oc1ccc2ccccc2c1CNc1nc2ccccc2[nH]1`, the pIC50 with Toxoplasma gondii and with Entamoeba histolytica was less than 4.52 in each case.
Consider `C[n+]1c2ccccc2nc2ccc(NCCO)cc21`, for which the pIC50 with Toxoplasma gondii and in the assay on Entamoeba histolytica was less than 4.52 each time.
On to `COc1ccc(C(O)(CCC(C)C)C(CN2CCOCC2)c2ccc(Cl)cc2)cc1` (centres undefined), for which the negative logarithm of the IC50 (pIC50) in the assay on Toxoplasma gondii and with Entamoeba histolytica was less than 4.52 in each case.
In the case of `COc1ccccc1NC1=C(N2CCCCC2)C(=O)c2ccccc2C1=O`, the negative logarithm of the IC50 (pIC50) was 5.34 in the assay on Toxoplasma gondii and less than 4.52 with Entamoeba histolytica.
For `CCCCc1c(CCC)c(=N)c2ccccc2n1C`, the negative-log IC50 (pIC50) in the assay on Toxoplasma gondii and with Entamoeba histolytica was less than 4.52 each time.
Consider `OC1CCCCC1C1(NC(=S)Nc2ccccc2)CCCCC1` (centres undefined), for which the pIC50 with Toxoplasma gondii and in the assay on Entamoeba histolytica was less than 4.52 each time.
For `CCCCCC(=O)N1c2ccccc2N=C2CC(c3ccc(OC)c(OC)c3)CC(O)=C2C1c1ccc(C(F)(F)F)cc1` (centres undefined), the negative-log IC50 (pIC50) in the assay with Toxoplasma gondii and in the assay on Entamoeba histolytica was less than 4.52 each time.
Turning to `CN(C)c1ccc(N=Cc2ccc(N3CCOCC3)cc2)cc1`, the negative-log IC50 (pIC50) in the assay with Toxoplasma gondii and in the assay on Entamoeba histolytica was less than 4.52 in each case.
As for `Cc1cc(C)c2c(c1)OCN(Cc1ccccc1Cl)C2`, the pIC50 in the assay with Toxoplasma gondii and in the assay with Entamoeba histolytica was less than 4.52 throughout.
On to `COc1cccc(Nc2nc(N)c3ccccc3n2)c1`, for which the negative-log IC50 (pIC50) with Toxoplasma gondii was 4.55; in the assay on Entamoeba histolytica, less than 4.52.
For the molecule `CCCCOC(=O)c1ccc(Nc2cc(C)nc3ccc(OC)cc23)cc1`, the pIC50 in the assay on Toxoplasma gondii and in the assay with Entamoeba histolytica was less than 4.52 throughout.
For `COc1ccccc1CNC(=O)C1c2ccccc2C(=O)N(CC(C)C)C1c1cccs1` (centres undefined), the negative logarithm of the IC50 (pIC50) with Toxoplasma gondii and with Entamoeba histolytica was less than 4.52 throughout.
Turning to `CCOC(=O)c1c(C)n(-c2ccccc2)c2ccc(OC(=O)c3cc(OC)c(OC)c(OC)c3)cc12`, the pIC50 in the assay on Toxoplasma gondii and with Entamoeba histolytica was less than 4.52 throughout.
Take `Cc1ccc(Cl)cc1N1CCN(CCCNC(=O)C2CCN(c3nc4ccccc4[nH]3)CC2)CC1`: the negative logarithm of the IC50 (pIC50) in the assay with Toxoplasma gondii and with Entamoeba histolytica was less than 4.52 in each case.
`CCOC(=O)c1cnc2ccc(Cl)cc2c1NCCCN(C)C`: the pIC50 in the assay with Toxoplasma gondii and in the assay with Entamoeba histolytica was less than 4.52 in each case.
Consider `OCCNc1nc(Nc2ccc(Cl)c(Cl)c2)nc2ccccc12`, for which the negative-log IC50 (pIC50) in the assay with Toxoplasma gondii and with Entamoeba histolytica was less than 4.52 in each case.
Turning to `CCOc1cccc(C(=O)Nc2ccc(-c3nc4ccccc4[nH]3)cc2)c1`, the pIC50 with Toxoplasma gondii and in the assay with Entamoeba histolytica was less than 4.52 each time.
In the case of `O=C(NC1CCCC1)c1ccc(N2CCC(NCc3cccc(C(F)(F)F)c3)CC2)cc1`, the pIC50 in the assay with Toxoplasma gondii and in the assay with Entamoeba histolytica was less than 4.52 throughout.
Regarding `CCCCNCC(O)(c1ccc(Cl)cc1)c1ccc(Cl)cc1`, the negative logarithm of the IC50 (pIC50) in the assay with Toxoplasma gondii and in the assay with Entamoeba histolytica was less than 4.52 each time.
As to `Cc1ccc(S(=O)(=O)c2c(COC(=O)c3cccc(C)c3)c(-c3ccccc3)nn2C)cc1`, the negative logarithm of the IC50 (pIC50) in the assay with Toxoplasma gondii and in the assay with Entamoeba histolytica was less than 4.52 in each case.
Regarding `COc1cccc(NC(=O)[C@H](C(C)C)n2c(=O)[nH]c3ccccc3c2=O)c1`, the negative logarithm of the IC50 (pIC50) with Toxoplasma gondii and with Entamoeba histolytica was less than 4.52 in each case.
With `O=C(NCc1ccco1)C1CCN(S(=O)(=O)c2ccc(Cl)cc2)CC1`, the pIC50 in the assay with Toxoplasma gondii and with Entamoeba histolytica was less than 4.52 throughout.
For `Cc1ccc(CSCc2ccc(C(=O)NC3CC3)o2)cc1`, the figures for the pIC50 with Toxoplasma gondii and with Entamoeba histolytica were 4.65 and less than 4.52, respectively.
For `Oc1ccccc1CN1CCC2(CCCN(Cc3ccccc3F)C2)C1` (centres undefined), in that order: less than 4.52 and less than 4.52.
On to `COc1ccc(CN2CCCC(C(=O)c3ccc(C(F)(F)F)cc3)C2)c(O)c1` (centres undefined), for which the pIC50 with Toxoplasma gondii and with Entamoeba histolytica was less than 4.52 throughout.
`CCCn1c(=N)c(C(=O)NC2CCCCC2)cc2c(=O)n3cccc(C)c3nc21`: the negative logarithm of the IC50 (pIC50) in the assay on Toxoplasma gondii and with Entamoeba histolytica was less than 4.52 in each case.
Take `COc1ccc(C(=O)NC(c2ccc(Cl)cc2Cl)c2cc(Cl)c3cccnc3c2O)cc1` (centres undefined): the pIC50 in the assay with Toxoplasma gondii and with Entamoeba histolytica was less than 4.52 in each case.
Take `Clc1ccc2[nH]c3c(NCCCN4CCOCC4)ncnc3c2c1`: the pIC50 with Toxoplasma gondii and in the assay on Entamoeba histolytica was less than 4.52 each time.
Take `O=C(NCCCN1CCC(N2CCCCC2)CC1)C1=Cc2cc(Br)ccc2OC1`: the negative-log IC50 (pIC50) in the assay with Toxoplasma gondii and with Entamoeba histolytica was less than 4.52 in each case.
For the molecule `O=c1nc(C=Cc2ccc(Cl)cc2)oc2ccccc12`, the negative-log IC50 (pIC50) in the assay with Toxoplasma gondii and in the assay with Entamoeba histolytica was less than 4.52 throughout.
In the case of `O=C(Nc1ccc(Cl)c(Cl)c1)Nc1ccc(Cl)c(Cl)c1`, the pIC50 in the assay on Toxoplasma gondii and with Entamoeba histolytica was less than 4.52 throughout.
`O=C(Cc1ccccc1)NC(c1ccc(Cl)cc1)c1c(O)ccc2ccccc12` (centres undefined): the pIC50 with Toxoplasma gondii and in the assay with Entamoeba histolytica was less than 4.52 in each case.
Regarding `COc1ccc(C(=O)C(CCC(CNC(C)(C)C)C(=O)c2ccc(OC)cc2)CNC(C)(C)C)cc1` (centres undefined), the negative-log IC50 (pIC50) with Toxoplasma gondii was 5.08; in the assay on Entamoeba histolytica, less than 4.52.
Consider `COc1ccc(OC)c(C2C3=C(CC(C)(C)CC3=O)N(c3ccc(Cl)c(Cl)c3)C3=C2C(=O)CC(C)(C)C3)c1`, for which the pIC50 with Toxoplasma gondii and with Entamoeba histolytica was less than 4.52 in each case.
Consider `Cc1cc(Nc2cccc(F)c2)nc(NCc2ccccc2)n1`, for which the negative logarithm of the IC50 (pIC50) with Toxoplasma gondii and in the assay on Entamoeba histolytica was less than 4.52 throughout.
In the case of `O=C1c2ccccc2-c2nnc(-c3ccc(Br)cc3)cc21`, the negative-log IC50 (pIC50) in the assay with Toxoplasma gondii and in the assay on Entamoeba histolytica was less than 4.52 each time.
As for `COc1ccc(-n2ccnc2SCC(=O)Nc2cc(C)ccc2C)c(OC)c1`, the pIC50 in the assay with Toxoplasma gondii and with Entamoeba histolytica was less than 4.52 throughout.
`c1ccc(CNc2nc(Nc3ccccc3)nc3ccccc23)cc1`: the negative-log IC50 (pIC50) with Toxoplasma gondii and in the assay with Entamoeba histolytica was less than 4.52 in each case.
In the case of `O=C(NCC1Cc2cccc(-c3ccncc3)c2O1)c1csc2c1CCCC2` (centres undefined), the pIC50 in the assay on Toxoplasma gondii and with Entamoeba histolytica was less than 4.52 throughout.
Regarding `Cc1c(C)n(CC(O)CNC2CCCCC2C)c2ccccc12` (centres undefined), the pIC50 in the assay with Toxoplasma gondii and in the assay on Entamoeba histolytica was less than 4.52 in each case.
`Cc1ccc(N2C3c4ccccc4N(S(=O)(=O)c4ccc(C)cc4)C2c2ccccc2N3S(=O)(=O)c2ccc(C)cc2)cc1`: the pIC50 in the assay with Toxoplasma gondii and in the assay with Entamoeba histolytica was less than 4.52 throughout.
In the case of `CC1CCN(Cc2ccc(NC(=O)c3cc4ccc5cccnc5c4[nH]3)cc2)CC1`, the negative logarithm of the IC50 (pIC50) with Toxoplasma gondii and in the assay with Entamoeba histolytica was less than 4.52 in each case.
With `Cc1ccc(Nc2nc(NCCO)c3ccccc3n2)cc1C`, the pIC50 with Toxoplasma gondii and in the assay on Entamoeba histolytica was less than 4.52 each time.
